Assay results published in publication PMC3274775 (ACS medicinal chemistry letters, 2011).
Entries after “also recorded” stand apart in the source; their conditions may differ. Like-named read-outs stand apart in the source and are kept apart here.

Assays:
[1] = target: T1, UGT 1A9 (Homo sapiens, UniProt O60656); assay: UGT substrate assay
T1 sequence (O60656 26-530): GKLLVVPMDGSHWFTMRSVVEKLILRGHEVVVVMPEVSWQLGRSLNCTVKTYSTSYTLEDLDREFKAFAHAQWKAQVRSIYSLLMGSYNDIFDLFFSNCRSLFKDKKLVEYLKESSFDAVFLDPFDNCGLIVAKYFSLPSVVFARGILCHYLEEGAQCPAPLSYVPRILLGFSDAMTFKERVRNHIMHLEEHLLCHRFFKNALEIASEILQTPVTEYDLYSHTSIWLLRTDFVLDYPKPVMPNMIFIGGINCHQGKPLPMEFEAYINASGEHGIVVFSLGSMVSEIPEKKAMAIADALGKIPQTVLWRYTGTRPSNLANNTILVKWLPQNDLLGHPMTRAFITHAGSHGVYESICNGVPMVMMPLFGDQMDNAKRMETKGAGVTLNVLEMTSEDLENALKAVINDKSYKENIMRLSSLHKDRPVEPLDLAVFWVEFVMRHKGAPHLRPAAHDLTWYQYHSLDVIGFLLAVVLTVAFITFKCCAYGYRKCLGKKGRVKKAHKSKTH

[2] = target: T2, CYP2C8 (Homo sapiens, UniProt P10632); assay: CYP inhibition/activation in pooled human liver microsomes; assay type: in vitro ADME
T2 sequence (P10632 1-490): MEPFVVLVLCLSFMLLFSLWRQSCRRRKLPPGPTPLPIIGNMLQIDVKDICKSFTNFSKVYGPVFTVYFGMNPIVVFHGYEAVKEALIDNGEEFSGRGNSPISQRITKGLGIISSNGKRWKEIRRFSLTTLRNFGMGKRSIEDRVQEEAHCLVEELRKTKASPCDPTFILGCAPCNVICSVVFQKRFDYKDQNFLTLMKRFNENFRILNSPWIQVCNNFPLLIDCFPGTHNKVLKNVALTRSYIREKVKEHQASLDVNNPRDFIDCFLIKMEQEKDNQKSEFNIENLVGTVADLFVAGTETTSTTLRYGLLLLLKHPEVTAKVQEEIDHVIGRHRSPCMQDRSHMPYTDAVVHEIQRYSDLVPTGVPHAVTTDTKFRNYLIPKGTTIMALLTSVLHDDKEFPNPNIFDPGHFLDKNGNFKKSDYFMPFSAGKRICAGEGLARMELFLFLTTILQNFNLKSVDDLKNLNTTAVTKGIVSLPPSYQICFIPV

[3] = target: CYP2D6 (Homo sapiens, UniProt P10635); assay: as above; assay type: in vitro ADME
[4] = target: CYP3A4 (Homo sapiens, UniProt P08684); assay: as above; assay type: in vitro ADME
[5] = target: T3, UGT 2B7 (Homo sapiens, UniProt P16662); assay: UGT substrate assay
T3 sequence (P16662 24-529): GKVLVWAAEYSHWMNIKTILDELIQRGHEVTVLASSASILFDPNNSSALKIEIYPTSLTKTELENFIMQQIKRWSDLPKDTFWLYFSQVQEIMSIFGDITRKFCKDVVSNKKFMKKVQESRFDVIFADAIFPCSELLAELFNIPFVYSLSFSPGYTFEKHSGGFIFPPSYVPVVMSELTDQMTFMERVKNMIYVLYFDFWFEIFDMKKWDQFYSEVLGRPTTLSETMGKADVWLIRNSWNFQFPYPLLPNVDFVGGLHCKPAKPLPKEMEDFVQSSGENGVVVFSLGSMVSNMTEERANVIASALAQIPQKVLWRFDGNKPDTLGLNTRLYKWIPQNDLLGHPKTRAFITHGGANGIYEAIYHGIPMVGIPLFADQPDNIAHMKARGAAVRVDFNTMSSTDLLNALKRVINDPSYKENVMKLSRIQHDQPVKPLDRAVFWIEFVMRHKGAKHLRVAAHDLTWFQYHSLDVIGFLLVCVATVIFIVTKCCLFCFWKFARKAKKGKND

[6] = target: T4, UGT 1A1 (Homo sapiens, UniProt P22309); assay: UGT substrate assay
T4 sequence (P22309 26-533): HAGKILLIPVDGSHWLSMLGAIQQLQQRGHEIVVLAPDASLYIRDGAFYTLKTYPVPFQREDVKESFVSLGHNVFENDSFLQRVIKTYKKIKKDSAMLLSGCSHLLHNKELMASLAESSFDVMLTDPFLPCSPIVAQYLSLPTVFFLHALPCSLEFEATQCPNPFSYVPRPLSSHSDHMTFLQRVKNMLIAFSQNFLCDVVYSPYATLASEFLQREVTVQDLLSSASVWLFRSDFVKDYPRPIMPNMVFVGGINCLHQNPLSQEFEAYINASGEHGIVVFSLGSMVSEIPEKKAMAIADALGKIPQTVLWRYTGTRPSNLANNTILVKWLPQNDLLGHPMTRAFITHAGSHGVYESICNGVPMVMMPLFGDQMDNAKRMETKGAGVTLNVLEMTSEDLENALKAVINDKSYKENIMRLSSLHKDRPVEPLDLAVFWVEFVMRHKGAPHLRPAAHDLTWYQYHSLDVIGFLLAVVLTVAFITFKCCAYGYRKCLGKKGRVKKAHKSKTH

[7] = Stability in pooled human liver microsomes; assay type: in vitro ADME
[8] = target: T5, UGT 1A6 (Homo sapiens, UniProt P19224); assay: UGT substrate assay
T5 sequence (P19224 27-532): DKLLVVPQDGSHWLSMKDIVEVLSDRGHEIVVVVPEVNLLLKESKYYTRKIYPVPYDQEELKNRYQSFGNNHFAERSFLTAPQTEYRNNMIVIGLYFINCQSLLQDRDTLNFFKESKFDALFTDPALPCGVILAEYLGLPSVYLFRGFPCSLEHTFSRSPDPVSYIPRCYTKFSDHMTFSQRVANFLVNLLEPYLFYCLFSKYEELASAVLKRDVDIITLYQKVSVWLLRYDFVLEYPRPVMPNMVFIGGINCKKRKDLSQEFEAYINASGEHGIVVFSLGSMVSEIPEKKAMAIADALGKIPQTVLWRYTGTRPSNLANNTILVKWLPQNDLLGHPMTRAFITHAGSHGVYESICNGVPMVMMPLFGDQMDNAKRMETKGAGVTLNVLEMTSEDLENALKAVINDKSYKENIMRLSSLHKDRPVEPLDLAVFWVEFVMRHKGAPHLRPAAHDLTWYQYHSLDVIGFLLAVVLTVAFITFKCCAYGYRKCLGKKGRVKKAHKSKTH

[9] = target: T6, UGT 1A4 (Homo sapiens, UniProt P22310); assay: UGT substrate assay
T6 sequence (P22310 29-534): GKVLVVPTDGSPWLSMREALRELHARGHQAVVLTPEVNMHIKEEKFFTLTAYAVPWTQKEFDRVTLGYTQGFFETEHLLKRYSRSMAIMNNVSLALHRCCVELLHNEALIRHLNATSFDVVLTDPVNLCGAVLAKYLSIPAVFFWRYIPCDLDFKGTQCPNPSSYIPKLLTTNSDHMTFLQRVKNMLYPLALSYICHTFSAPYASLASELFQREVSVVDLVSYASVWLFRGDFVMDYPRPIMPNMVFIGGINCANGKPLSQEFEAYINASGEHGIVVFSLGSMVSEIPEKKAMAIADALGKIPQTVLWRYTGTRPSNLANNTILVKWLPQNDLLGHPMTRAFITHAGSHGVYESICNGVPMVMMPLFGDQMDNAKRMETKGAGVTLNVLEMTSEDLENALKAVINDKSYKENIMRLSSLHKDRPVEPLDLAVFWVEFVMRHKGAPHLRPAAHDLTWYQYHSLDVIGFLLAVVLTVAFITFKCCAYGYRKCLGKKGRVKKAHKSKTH

[10] = system: HIV-1; assay: microbe, parasite or virus in culture; settings: Human immunodeficiency virus 1, MAGI
[11] = target: HIV-1 integrase (Human immunodeficiency virus type 1 group M subtype B, UniProt P04585); assay: Inhibition of the strand transfer; assay type: biochemical
[12] = target: T4, UGT 1A1; settings: cited from earlier work

CYP2D6, sequence (P10635 whole entry): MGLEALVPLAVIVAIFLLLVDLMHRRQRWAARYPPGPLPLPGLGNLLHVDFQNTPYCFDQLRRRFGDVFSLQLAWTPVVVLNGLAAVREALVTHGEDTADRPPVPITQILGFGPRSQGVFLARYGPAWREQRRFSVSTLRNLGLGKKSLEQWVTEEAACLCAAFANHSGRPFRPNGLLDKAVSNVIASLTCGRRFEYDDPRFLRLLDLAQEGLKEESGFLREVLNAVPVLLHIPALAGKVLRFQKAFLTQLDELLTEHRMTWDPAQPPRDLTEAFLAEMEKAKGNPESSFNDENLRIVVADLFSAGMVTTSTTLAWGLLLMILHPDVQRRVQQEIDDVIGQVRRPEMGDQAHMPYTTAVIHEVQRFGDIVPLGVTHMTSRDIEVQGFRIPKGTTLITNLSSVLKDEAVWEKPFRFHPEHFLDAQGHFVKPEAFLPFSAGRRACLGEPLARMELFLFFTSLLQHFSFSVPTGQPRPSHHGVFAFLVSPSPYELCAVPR
CYP3A4, sequence (P08684 whole entry): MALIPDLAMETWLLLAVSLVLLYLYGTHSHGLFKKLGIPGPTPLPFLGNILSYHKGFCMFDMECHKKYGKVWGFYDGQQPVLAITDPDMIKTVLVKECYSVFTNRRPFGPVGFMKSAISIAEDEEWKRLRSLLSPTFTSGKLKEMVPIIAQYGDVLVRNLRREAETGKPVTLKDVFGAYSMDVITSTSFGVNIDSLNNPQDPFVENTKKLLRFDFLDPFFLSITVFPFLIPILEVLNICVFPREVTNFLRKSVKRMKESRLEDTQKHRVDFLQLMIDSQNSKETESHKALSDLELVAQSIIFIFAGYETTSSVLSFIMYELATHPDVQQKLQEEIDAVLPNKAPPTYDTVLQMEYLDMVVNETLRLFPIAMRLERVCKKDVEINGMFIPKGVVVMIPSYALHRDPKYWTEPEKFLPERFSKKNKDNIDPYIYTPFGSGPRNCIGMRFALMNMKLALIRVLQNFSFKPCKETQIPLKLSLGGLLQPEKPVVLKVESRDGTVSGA

## O=C(O)/C(O)=C/C(=O)c1cc(Cc2ccc(F)cc2F)cn(Cc2ccccc2F)c1=O [Compound 2, 4-(5-(2,4-difluorobenzyl)-1-(2-fluoro-benzyl)-2-oxo-1,2-dihydro-pyridin-3-yl)-2-hydroxy-4-oxobut-2-enoic acid]
[1]
  substrate activity towards UGT 1A9: not a substrate
[2]
  activation of CYP2C8: did not exhibit any activation
[3]
  activation of CYP2D6: did not exhibit any activation
  inhibition of CYP2D6: not an inhibitor
[4]
  activation of CYP3A4: did not exhibit any activation
  inhibition of CYP3A4: not an inhibitor
[5]
  substrate activity towards UGT 2B7: not a substrate
[6]
  substrate activity towards UGT 1A1: not a substrate
[7]
  stability in pooled human liver microsomes: good stability; also recorded: relatively stable
[8]
  substrate activity towards UGT 1A6: not a substrate
[9]
  substrate activity towards UGT 1A4: not a substrate
[10]; read-out: anti-HIV-1 EC50
  EC50: ≤ 500 nM

## CC(C)OC(=O)/C(O)=C/C(=O)c1cc(Cc2ccc(F)cc2F)cn(Cc2ccccc2F)c1=O [Compound 10]
[11]
  IC50: > 475 nM
[7]; in 15 minutes
  conversion to compound 2 by hydrolysis in human liver microsomes: 100%

## O=C(O)C(=O)C=C(O)c1cc(Cc2ccc(F)cc2F)cn(Cc2ccc(F)cc2F)c1=O [Entry 11, 4-(1,5-bis(2,4-difluorobenzyl)-2-oxo-1,2-dihydropyridin-3-yl)-4-hydroxy-2-oxobut-3-enoic acid]
[11]
  IC50: 5.5 ± 1.5 nM
[10]
  EC50: 300 nM
[10]; read-out: anti-HIV-1 EC50
  EC50: ≤ 500 nM

## C[C@@H]1CCO[C@H]2Cn3cc(C(=O)NCc4ccc(F)cc4F)c(=O)c(O)c3C(=O)N12 [S/GSK 1349572]
[12]; primary route of metabolism and clearance is glucuronidation
  substrate activity towards UGT 1A1: substrate for UGT 1A1

## Cc1nnc(C(=O)NC(C)(C)c2nc(C(=O)NCc3ccc(F)cc3)c(O)c(=O)n2C)o1 [raltegravir, reference compound]
[10]; read-out: anti-HIV-1 EC50
  EC50: < 6 nM
[12]; humans
  major mechanism of clearance in humans: UGT 1A1-mediated glucuronidation
